Counter-ions that a name gives are not always drawn. Marks after values point to notes of the source that are not given here.
Tests used:
Assay type in all cases: physicochemical
[1] = Partition coefficient in HEMA/MAA copolymer gels of various compositions
Protocol: Gels of […] were synthesized using 2 mL monomer solution, 2.7 mL of water, 10 μL of ethylene glycol dimethacrylate as crosslinker, and 6 mg of Darocur TPO as a photoinitiator. The monomer solution had different fractions of HEMA and MAA (i.e. 60% MAA would be 1.2 mL MAA and 0.8 mL HEMA). Gels were cured under UV light in 100 micron thick molds and subsequently cut into pieces approximately 50 mg in mass. Some gels were loaded with BAK to give a 3× (or 300 ppm) initial concentration and placed into 3 mL solution (either 0.025% Bimatoprost/PBS 1× or 0.2% BAK/PBS). The concentrations in solution were measured using UV-vis spectrophotometry. Upon achieving equilibrium, the gels were placed in 3 mL blank PBS, and release was monitored by UV-vis spectrophotometry. Uptake and release equilibrium concentrations were used to calculate partition coefficients. FIGS. 28 and 29 are plots of the partition coefficient for Bimatoprost and BAK for various gel copolymer compositions.

[2] = Partition coefficient in macroporous pHEMA hydrogel; conditions: for Partition coefficient: 250 mg gel in 12 mL PBS solution, 15 days, mean ± SD, n=3
Protocol: As indicated above, the absorption percentage of hydrophilic drug is small, whereas a significant amount of hydrophobic drug is uptake by the macroporous pHEMA gel. The high affinity of hydrophobic drug to the gel can be determined by measuring the partition coefficient of the drug in the gel. To measure the partition coefficient, a piece of macroporous pHEMA gel of 250 mg was soaked in 12 mL of drug or BAK solution. After 15 days of soaking, the concentration of the drug or BAK solution was measured by using UV-Vis spectrophotometry. The drug or BAK concentration after soaking indicated the amount of drug or BAK in reference to the initial concentration is that absorbed into the gel. The partition coefficient of timolol and dorzolamide in macroporous pHEMA gel is roughly 15 times smaller than that of BAK, which is excellent separation efficiency. In contrast, the partition coefficients of latanoprost and BAK are pretty high and the separation efficiency of the gel for this mixture is poor.

[3] = Partition coefficient in pHEMA particles prepared using SR9035 as cross-linker; conditions: 100 mg particles in 3.5 mL solution, 9 days
Protocol: The partition coefficients of timolol, CMC and BAK in pHEMA particles prepared using SR9035 as cross-linker was measured. pHEMA particles (100 mg) were soaked in 3.5 mL of timolol, CMC and BAK solution, which concentration was 0.08 mg/mL, 0.5% and 2.4 mg/mL, respectively. After 9 days of soaking, the concentration of the drug or BAK solution was measured by using UV-Vis spectrophotometry. The drug or BAK concentration after soaking indicated the amount of drug or BAK that absorbed into the gel relative to the initial concentration. The partition coefficient of timolol and CMC in pHEMA particles is much smaller than that of BAK, and should have excellent separation efficiency.

[4] = Langmuir adsorption isotherm fit of equilibrium interfacial surface tension of BAK solutions; conditions: Langmuir model fit
Protocol: An eye drop bottle's plug (tip) was packed with 0.1 g of p-HEMA particles for Timolol Maleate commercial formulation (Sandoz Inc.) and 0.1 g of p-HEMA/MAA particles for Bimatoprost commercial formation (Allegran Inc.). Approximately 0.5 mL of commercial formulation was dosed from the eye drop bottle for each measurement with 0.5 mL of a filtered formulation withdrawn by a standard 3 mL syringe for pendant drop measurements. A drop shape analysis was conducted by the Tensiometer to extract surface tension data of the filtered formulation. A calibration curve with equilibrium interfacial surface tension data as a function of BAK concentration was used to estimate concentrations and fractional BAK removal from the filtered eye drop formulation. Periodic surface tension measurements of the formulations were done to monitor fractional BAK removal.
The steady state Langmuir adsorption isotherm model and Langmuir surface equation of state were used to fit the equilibrium interfacial surface tension data are given below:
[formula] [formula] Where a least square error minimization protocol was used to fit the experimental equilibrium surface tension values and the calculated estimates using the above model. […] Benzalkonium Chloride Removal from Commercial Bimatoprost Formulation (Allegran Inc.)

[5] = Partition coefficient of BAK in pHEMA particles prepared by heat-initiated polymerization
[6] = Partition and adsorption into pHEMA matrix (general statement)

Compound	partitioning between gel and solution (in words) [1]	Partition coefficient [2]	partition coefficient, times smaller than that of BAK [2]	Partition coefficient [3]	other results
CCNC(=O)CCC/C=C\C[C@@H]1[C@@H](/C=C/[C@@H](O)CCc2ccccc2)[C@H](O)C[C@@H]1O [Bimatoprost]	tends to remain in solution	–	–	–	–
C[C@@H]1C[C@H]2[C@@H]3CCC4=CC(=O)C=C[C@]4(C)[C@@]3(F)[C@@H](O)C[C@]2(C)[C@@]1(O)C(=O)CO [Dexamethasone, dexamethasone]	–	33.53 ± 1.31	–	–	–
CCN[C@H]1C[C@H](C)S(=O)(=O)c2sc(S(N)(=O)=O)cc21 [Dorzolamide, dorzolamide hydrochloride]	–	7.59 ± 0.56	roughly 15 times	–	–
CC(C)OC(=O)CCC/C=C\C[C@@H]1[C@@H](CC[C@@H](O)CCc2ccccc2)[C@H](O)C[C@@H]1O [Latanoprost, latanoprost]	–	90.18	–	–	–
CC(C)(C)NC[C@H](O)COc1nsnc1N1CCOCC1 [Timolol, timolol maleate]	–	6.49	roughly 15 times	5.59 ± 0.13^a	–
Benzalkonium Chloride [BAK]	strongly partitions into the gel	–	–	~300	maximum surface coverage Γ∞ (fit parameter) [4]: 0.003309 mol/m^2; ratio of kinetic rate constants β/α (fit parameter) [4]: 462.14 m^3/mol; Partition coefficient [5]: 200-250; adsorption time on pHEMA ([6]; compared with transit time): < 3 s; partition coefficient into pHEMA matrix ([6]; depends on BAK concentration and structure of pHEMA matrix): 100-500
